Results taken from ChEMBL document CHEMBL1134903, “Synthesis and SAR of azalide 3,6-ketal aromatic derivatives as potent Gram-positive and Gram-negative antibacterial agents” (Bioorg Med Chem Lett, 2002).
In brackets after ≈: the same amount, converted by molar mass.

What was measured:
Format in all cases: functional
[1] = system: Staphylococcus aureus; test: Minimum inhibitory concentration against Staphylococcus aureus
[2] = system: Escherichia coli; test: Minimum inhibitory concentration against Escherichia coli
[3] = system: Staphylococcus aureus; test: Colony forming units of Staphylococcus aureus intramammary infection (IMI) model was determined at a dose of 15 mg/kg
[4] = system: Pasteurella multocida; test: Minimum inhibitory concentration against Pasteurella multocida
[5] = system: Staphylococcus aureus; test: Effective dose required to inhibit Staphylococcus aureus intraperitoneal (IP) infection model

SMILES	MIC [1]	MIC [2]	Log CFU [3]	MIC [4]	ED50 [5]
CC[C@H]1OC(=O)[C@H](C)[C@H]2OC3(CCN(C(=O)c4cccnc4)CC3)O[C@](C)(C[C@@H](C)CN(C)[C@H](C)[C@@H](O)[C@]1(C)O)[C@H](O[C@@H]1O[C@H](C)C[C@H](N(C)C)[C@H]1O)[C@H]2C	1.56 µg/mL (≈ 2.01 µM)	3.13 µg/mL (≈ 4.03 µM)	2.6	0.1 µg/mL (≈ 0.129 µM)	10 mg/kg
CC[C@H]1OC(=O)[C@H](C)[C@H]2OC3(CCN(C(=O)c4ccccn4)CC3)O[C@](C)(C[C@@H](C)CN[C@H](C)[C@@H](O)[C@]1(C)O)[C@H](O[C@@H]1O[C@H](C)C[C@H](N(C)C)[C@H]1O)[C@H]2C	0.78 µg/mL (≈ 1.02 µM)	1.56 µg/mL (≈ 2.04 µM)	3.5	0.1 µg/mL (≈ 0.131 µM)	7.6 mg/kg
CC[C@H]1OC(=O)[C@H](C)[C@H]2OC3(CCN(C(=O)c4cccc(O)n4)CC3)O[C@](C)(C[C@@H](C)CN[C@H](C)[C@@H](O)[C@]1(C)O)[C@H](O[C@@H]1O[C@H](C)C[C@H](N(C)C)[C@H]1O)[C@H]2C	3.13 µg/mL (≈ 4.02 µM)	6.25 µg/mL (≈ 8.02 µM)	9.7	0.3 µg/mL (≈ 0.385 µM)	19 mg/kg
CC[C@H]1OC(=O)[C@H](C)[C@H]2OC3(CCN(Cc4ccccn4)CC3)O[C@](C)(C[C@@H](C)CN(C)[C@H](C)[C@@H](O)[C@]1(C)O)[C@H](O[C@@H]1O[C@H](C)C[C@H](N(C)C)[C@H]1O)[C@H]2C	0.78 µg/mL (≈ 1.02 µM)	0.2 µg/mL (≈ 0.262 µM)	1.9	0.03 µg/mL (≈ 0.0393 µM)	17 mg/kg
CC[C@H]1OC(=O)[C@H](C)[C@H]2OC3(CCN(C(=O)c4ccnc5ccccc45)CC3)O[C@](C)(C[C@@H](C)CN(C)[C@H](C)[C@@H](O)[C@]1(C)O)[C@H](O[C@@H]1O[C@H](C)C[C@H](N(C)C)[C@H]1O)[C@H]2C	0.39 µg/mL (≈ 0.472 µM)	6.25 µg/mL (≈ 7.56 µM)	2.5	0.1 µg/mL (≈ 0.121 µM)	20 mg/kg
CC[C@H]1OC(=O)[C@H](C)[C@H]2OC3(CCN(C(=O)c4cnc5ccccc5c4)CC3)O[C@](C)(C[C@@H](C)CN[C@H](C)[C@@H](O)[C@]1(C)O)[C@H](O[C@@H]1O[C@H](C)C[C@H](N(C)C)[C@H]1O)[C@H]2C	0.39 µg/mL (≈ 0.48 µM)	3.13 µg/mL (≈ 3.85 µM)	3.3	0.1 µg/mL (≈ 0.123 µM)	13 mg/kg
CC[C@H]1OC(=O)[C@H](C)[C@H]2OC3(CCN(CCc4ccc(OC)cc4)CC3)O[C@](C)(C[C@@H](C)CN(C)[C@H](C)[C@@H](O)[C@]1(C)O)[C@H](O[C@@H]1O[C@H](C)C[C@H](N(C)C)[C@H]1O)[C@H]2C	0.39 µg/mL (≈ 0.484 µM)	0.39 µg/mL (≈ 0.484 µM)	9.7	0.03 µg/mL (≈ 0.0372 µM)	> 20 mg/kg
CC[C@H]1OC(=O)[C@H](C)[C@H]2OC3(CCN(C(=O)c4cccnc4Cl)CC3)O[C@](C)(C[C@@H](C)CN[C@H](C)[C@@H](O)[C@]1(C)O)[C@H](O[C@@H]1O[C@H](C)C[C@H](N(C)C)[C@H]1O)[C@H]2C	1.56 µg/mL (≈ 1.96 µM)	3.13 µg/mL (≈ 3.93 µM)	4.4	0.1 µg/mL (≈ 0.125 µM)	9.4 mg/kg
CC[C@H]1OC(=O)[C@H](C)[C@H]2OC3(CCN(C(=O)c4ccc5ccccc5n4)CC3)O[C@](C)(C[C@@H](C)CN(C)[C@H](C)[C@@H](O)[C@]1(C)O)[C@H](O[C@@H]1O[C@H](C)C[C@H](N(C)C)[C@H]1O)[C@H]2C	0.39 µg/mL (≈ 0.472 µM)	6.25 µg/mL (≈ 7.56 µM)	9.7	0.1 µg/mL (≈ 0.121 µM)	> 20 mg/kg
CC[C@H]1OC(=O)[C@H](C)[C@@H](O[C@H]2C[C@@](C)(OC)[C@@H](O)[C@H](C)O2)[C@H](C)[C@@H](O[C@@H]2O[C@H](C)C[C@H](N(C)C)[C@H]2O)[C@](C)(O)C[C@@H](C)CN(C)[C@H](C)[C@@H](O)[C@]1(C)O [AZITHROMYCIN]	0.2 µg/mL (≈ 0.267 µM)	1.56 µg/mL (≈ 2.08 µM)	2.8	0.1 µg/mL (≈ 0.134 µM)	4.1 mg/kg
CC[C@H]1OC(=O)[C@H](C)[C@H]2OC3(CCN(C(=O)c4ccco4)CC3)O[C@](C)(C[C@@H](C)CN[C@H](C)[C@@H](O)[C@]1(C)O)[C@H](O[C@@H]1O[C@H](C)C[C@H](N(C)C)[C@H]1O)[C@H]2C	0.78 µg/mL (≈ 1.04 µM)	1.56 µg/mL (≈ 2.07 µM)	0.4	0.05 µg/mL (≈ 0.0665 µM)	12 mg/kg
CC[C@H]1OC(=O)[C@H](C)[C@H]2OC3(CCN(Cc4ccccn4)CC3)O[C@](C)(C[C@@H](C)CN[C@H](C)[C@@H](O)[C@]1(C)O)[C@H](O[C@@H]1O[C@H](C)C[C@H](N(C)C)[C@H]1O)[C@H]2C	0.6 µg/mL (≈ 0.801 µM)	0.2 µg/mL (≈ 0.267 µM)	1.1	0.03 µg/mL (≈ 0.0401 µM)	< 5 mg/kg
CC[C@H]1OC(=O)[C@H](C)[C@H]2OC3(CCN(CCc4ccc(Cl)cc4)CC3)O[C@](C)(C[C@@H](C)CN(C)[C@H](C)[C@@H](O)[C@]1(C)O)[C@H](O[C@@H]1O[C@H](C)C[C@H](N(C)C)[C@H]1O)[C@H]2C	0.39 µg/mL (≈ 0.481 µM)	0.2 µg/mL (≈ 0.247 µM)	9.7	0.03 µg/mL (≈ 0.037 µM)	> 20 mg/kg
CC[C@H]1OC(=O)[C@H](C)[C@H]2OC3(CCN(CCc4ccc5ccccc5n4)CC3)O[C@](C)(C[C@@H](C)CN[C@H](C)[C@@H](O)[C@]1(C)O)[C@H](O[C@@H]1O[C@H](C)C[C@H](N(C)C)[C@H]1O)[C@H]2C	0.2 µg/mL (≈ 0.246 µM)	0.78 µg/mL (≈ 0.959 µM)	5.2	0.03 µg/mL (≈ 0.0369 µM)	22 mg/kg
CC[C@H]1OC(=O)[C@H](C)[C@H]2OC3(CCN(C(=O)c4ccc5ccccc5n4)CC3)O[C@](C)(C[C@@H](C)CN[C@H](C)[C@@H](O)[C@]1(C)O)[C@H](O[C@@H]1O[C@H](C)C[C@H](N(C)C)[C@H]1O)[C@H]2C	0.2 µg/mL (≈ 0.246 µM)	1.56 µg/mL (≈ 1.92 µM)	1.9	0.05 µg/mL (≈ 0.0615 µM)	14 mg/kg
CC[C@H]1OC(=O)[C@H](C)[C@H]2OC3(CCN(C(=O)c4cccnc4)CC3)O[C@](C)(C[C@@H](C)CN[C@H](C)[C@@H](O)[C@]1(C)O)[C@H](O[C@@H]1O[C@H](C)C[C@H](N(C)C)[C@H]1O)[C@H]2C	1.56 µg/mL (≈ 2.04 µM)	3.13 µg/mL (≈ 4.1 µM)	3.2	0.1 µg/mL (≈ 0.131 µM)	6.4 mg/kg
CC[C@H]1OC(=O)[C@H](C)[C@H]2OC3(CCN(C(=O)c4cccc(OC)c4)CC3)O[C@](C)(C[C@@H](C)CN[C@H](C)[C@@H](O)[C@]1(C)O)[C@H](O[C@@H]1O[C@H](C)C[C@H](N(C)C)[C@H]1O)[C@H]2C	0.78 µg/mL (≈ 0.985 µM)	3.13 µg/mL (≈ 3.95 µM)	5.6	0.1 µg/mL (≈ 0.126 µM)	20 mg/kg
CC[C@H]1OC(=O)[C@H](C)[C@H]2OC3(CCN(C(=O)c4ccccn4)CC3)O[C@](C)(C[C@@H](C)CN(C)[C@H](C)[C@@H](O)[C@]1(C)O)[C@H](O[C@@H]1O[C@H](C)C[C@H](N(C)C)[C@H]1O)[C@H]2C	1.56 µg/mL (≈ 2.01 µM)	1.56 µg/mL (≈ 2.01 µM)	2.9	0.1 µg/mL (≈ 0.129 µM)	12 mg/kg
CC[C@H]1OC(=O)[C@H](C)[C@H]2OC3(CCN(C(=O)c4ccc[nH]4)CC3)O[C@](C)(C[C@@H](C)CN[C@H](C)[C@@H](O)[C@]1(C)O)[C@H](O[C@@H]1O[C@H](C)C[C@H](N(C)C)[C@H]1O)[C@H]2C	0.78 µg/mL (≈ 1.04 µM)	0.78 µg/mL (≈ 1.04 µM)	4.7	0.05 µg/mL (≈ 0.0666 µM)	19 mg/kg
